Experiments:
[1] = biological target: N-acetylated, α-linked, acidic dipeptidase (NAALADase) (Homo sapiens, UniProt Q04609); assay: inhibition of NAALADase by clavulanic acid (applicant's discovery, no method given); type: biochemical; conditions: statement in words, no data
[2] = test system: serine β-lactamase; conditions: background statement in words; cited from earlier work
[3] = test system: bacteria; conditions: clavulanic acid alone; background statement in words; cited from earlier work

N-acetylated, α-linked, acidic dipeptidase (NAALADase), sequence (Q04609 whole entry): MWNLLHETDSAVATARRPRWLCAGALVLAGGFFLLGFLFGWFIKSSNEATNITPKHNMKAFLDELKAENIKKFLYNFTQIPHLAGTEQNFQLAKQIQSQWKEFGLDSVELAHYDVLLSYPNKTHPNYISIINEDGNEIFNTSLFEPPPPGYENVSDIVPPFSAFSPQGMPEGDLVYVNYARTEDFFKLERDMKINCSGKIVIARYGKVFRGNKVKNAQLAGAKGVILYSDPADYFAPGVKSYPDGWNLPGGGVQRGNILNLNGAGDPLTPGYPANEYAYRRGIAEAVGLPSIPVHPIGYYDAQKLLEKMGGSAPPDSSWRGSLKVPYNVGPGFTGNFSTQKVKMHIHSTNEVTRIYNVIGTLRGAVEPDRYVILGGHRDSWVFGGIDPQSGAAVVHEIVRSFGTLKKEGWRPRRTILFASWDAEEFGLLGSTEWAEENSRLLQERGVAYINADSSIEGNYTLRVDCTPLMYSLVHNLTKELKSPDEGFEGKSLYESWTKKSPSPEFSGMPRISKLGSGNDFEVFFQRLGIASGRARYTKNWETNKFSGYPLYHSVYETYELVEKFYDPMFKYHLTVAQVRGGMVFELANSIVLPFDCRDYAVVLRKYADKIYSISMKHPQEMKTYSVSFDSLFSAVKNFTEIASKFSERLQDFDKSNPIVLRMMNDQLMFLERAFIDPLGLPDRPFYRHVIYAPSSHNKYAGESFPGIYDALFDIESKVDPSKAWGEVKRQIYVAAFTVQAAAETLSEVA

In the case of `O=C(O)[C@H]1/C(=C/CO)O[C@@H]2CC(=O)N21` [clavulanic acid], the “inhibition of NAALADase” value [1] is listed as “potent inhibitor”, the “binding affinity for the serine β-lactamases” value [2] is listed as “very high binding affinity” and the “inhibition of "serine" β-lactamase” value [2] is listed as “potent inhibitor”. For the same molecule, the antibacterial activity [3] was “only weak, though broad spectrum, antibacterial activity”.
